Reference: patent US8697858B2 (priority 2009, dated 2014)
Where “and” joins values, the source holds several entries; their conditions need not be identical. Identical values can stand only once. Like-named read-outs stand apart in the source and are kept apart here. In the oligonucleotide strings, read from the 5' end, every base follows the letter of its sugar. An asterisk marks phosphorothioate; unmarked linkages are phosphodiester. Other units and linkages are bracketed, terminal groups are in braces. A string of capitals states the bases alone. [PMO-N] = phosphorodiamidate morpholino subunit (N: the base); [pip] = piperazino phosphorodiamidate linkage (PMOplus)

Tests used:
Format in all cases: in vivo, ferrets
[1] = system: oseltamivir-resistant H1N1 (SOIV) pandemic influenza virus
[2] = system: oseltamivir-resistant H1N1 (SOIV) pandemic influenza virus; remark: listed apart in the source
[3] = system: oseltamivir-resistant H1N1 (SOIV) pandemic influenza virus; settings: for Viral Titer / Viral Titer AUC: n = 8
[4] = system: oseltamivir-resistant H1N1 (SOIV) pandemic influenza virus; remark: listed apart in the source
[5] = Post minus Pre, Tamiflu 5 mg/kg p.o. every 12 hours
[6] = Post, Tamiflu 5 mg/kg p.o. every 12 hours
[7] = Pre, Tamiflu 5 mg/kg p.o. every 12 hours

CCOC(=O)C1=C[C@@H](OC(CC)CC)[C@H](NC(C)=O)[C@@H](N)C1 [Tamiflu, Oseltamivir, reference compound]
lung congestion, alveolitis, infiltrating cells ([1]; AVI-7100 with or without oseltamivir, oseltamivir-only): significant congestion in the lung with marked alveolitis
Body Weight Change Difference [2, 5]: -6.1 g/day
Max Body Temperatures Difference [2, 5]: +1.3 ° F.
Body Weight Change Post [2, 6]: 8.5 ± 3.2 g/day
Max Body Temperatures Post [2, 6]: 105.7 ° F.
Body Weight Change Pre [2, 7]: 15.1 ± 0.4 g/day
Max Body Temperatures Pre [2, 7]: 104.4 ° F.
Clinical Scores ([2]; Tamiflu 5 mg/kg p.o. every 12 hours): 1.17 ± 0.25
Viral Titer ([3]; nasal wash, Day 1, Oseltamivir 5 mg/kg p.o. every 12 hours): 2.42 ± 0.58
Viral Titer ([3]; nasal wash, Day 3, Oseltamivir 5 mg/kg p.o. every 12 hours): 0.77 ± 0.73
Viral Titer ([3]; nasal wash, Day 5, Oseltamivir 5 mg/kg p.o. every 12 hours): 0.67 ± 0.67
Viral Titer ([3]; nasal wash, Day 8, Oseltamivir 5 mg/kg p.o. every 12 hours): 0.92 ± 0.37
Viral Titer AUC ([3]; nasal wash, Oseltamivir 5 mg/kg p.o. every 12 hours): 7.015
Macrophage Cellularity in Upper Respiratory Tract, Day 3 Peak ([4]; nasal wash, Day 3, Tamiflu 5 mg/kg p.o. every 12 hours): 7.91 ± 7.28
Macrophage Cellularity in Upper Respiratory Tract, Average ± Std Deviation ([4]; nasal wash, Tamiflu 5 mg/kg p.o. every 12 hours): 2.98 ± 2.71

AVI-7100: PMOplus CGGT+TAGAAGAC+TCATC+TTT, three (piperazino) phosphorodiamidate linkages ([PMO-C][PMO-G][PMO-G][PMO-T][pip][PMO-T][PMO-A][PMO-G][PMO-A][PMO-A][PMO-G][PMO-A][PMO-C][pip][PMO-T][PMO-C][PMO-A][PMO-T][PMO-C][pip][PMO-T][PMO-T][PMO-T])
lung congestion, alveolitis, infiltrating cells ([1]; in vivo): no congestion in the lung, only mild alveolitis, and few infiltrating cells
Clinical Scores ([2]; in vivo): 1.00 ± 0.00 and 1.11 ± 0.21
symptoms of influenza virus infection ([2]; in vivo): significantly reduces symptoms of influenza virus infection
Body Weight Change Difference ([2]; in vivo, ip, 10 mg/kg): -5.7 g/day
Body Weight Change Post ([2]; in vivo, ip, 10 mg/kg): 10.9 ± 1.5 g/day
Body Weight Change Pre ([2]; in vivo, ip, 10 mg/kg): 16.6 ± 0.8 g/day
Max Body Temperatures Difference ([2]; in vivo, ip, 10 mg/kg): +0.7 ° F.
Max Body Temperatures Post ([2]; in vivo, ip, 10 mg/kg): 106.1 ° F.
Max Body Temperatures Pre ([2]; in vivo, ip, 10 mg/kg): 105.4 ° F.
Body Weight Change Difference ([2]; in vivo, ip, 30 mg/kg): +0.8 g/day
Body Weight Change Post ([2]; in vivo, ip, 30 mg/kg): 12.6 ± 2.0 g/day
Body Weight Change Pre ([2]; in vivo, ip, 30 mg/kg): 11.8 ± 0.8 g/day
Max Body Temperatures Difference ([2]; in vivo, ip, 30 mg/kg): −0.5 ° F.
Max Body Temperatures Post ([2]; in vivo, ip, 30 mg/kg): 104.2 ° F.
Max Body Temperatures Pre ([2]; in vivo, ip, 30 mg/kg): 104.7 ° F.
viral titer in nasal wash, benefit in words ([3]; in vivo): Significant benefit
Viral Titer AUC ([3]; 10 mg/kg): 5.515
Viral Titer AUC ([3]; 30 mg/kg): 5.675
Macrophage Cellularity in Upper Respiratory Tract, Average ± Std Deviation ([4]; in vivo, ip, 10 mg/kg): 4.34 ± 3.82
Macrophage Cellularity in Upper Respiratory Tract, Day 3 Peak ([4]; in vivo, ip, 10 mg/kg): 3.88 ± 4.73
Macrophage Cellularity in Upper Respiratory Tract, Average ± Std Deviation ([4]; in vivo, ip, 30 mg/kg): 2.78 ± 2.97
Macrophage Cellularity in Upper Respiratory Tract, Day 3 Peak ([4]; in vivo, ip, 30 mg/kg): 1.59 ± 1.28
